Among the data in patent US11970494B2, “6-heteroaryloxy benzimidazoles and azabenzimidazoles as JAK2 inhibitors” (Ajax Therapeutics, Inc., priority 2021, dated 2024) are Kd values, retold here.

pKd: −log10 of the molar value. Bounds are passed on as bounds.

As usually defined, the pKd is the Kd on a negative log10 scale, so that one unit is a factor of ten.

T1 sequence (O60674 849-1124 Y1007F/Y1008F limits assumed): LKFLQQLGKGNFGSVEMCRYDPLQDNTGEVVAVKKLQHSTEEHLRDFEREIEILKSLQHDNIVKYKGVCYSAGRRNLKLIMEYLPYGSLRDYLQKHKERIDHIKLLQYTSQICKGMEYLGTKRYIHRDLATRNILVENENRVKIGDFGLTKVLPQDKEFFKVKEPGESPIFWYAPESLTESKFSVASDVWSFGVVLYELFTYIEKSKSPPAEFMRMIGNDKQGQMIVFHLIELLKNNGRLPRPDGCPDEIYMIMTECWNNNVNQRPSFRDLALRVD

One assay concerns the target T1, JAK2 (JH1 domain-catalytic, Y1007F,Y1008F) kinase (Homo sapiens, UniProt O60674, Y1007F/Y1008F).
T1 construct: made in house; host or cells: transiently transfected HEK293 cells
The experiment in a line: JAK2 Binding Assay (JAK2 JH1 Domain Binding Assay).
Conditions: not given
For `Cn1cc(C(F)(F)F)cc(Nc2nc3ncc(Oc4ccnc(NC(=O)CF)c4)c(Cl)c3n2C)c1=O` [Example I-76, N-(4-((7-chloro-1-methyl-2-((1-methyl-2-oxo-5-(trifluoromethyl)-1,2-dihydropyridin-3-yl)amino)-1H-imidazo[4,5-b]pyridin-6-yl)oxy)pyridin-2-yl)-2-fluoroacetamide], the pKd is over 8.00.

The same assay, now with this note: JAK2 JH1 domain binding, qPCR detection; read-out: JAK2 Kd.
As to `CN(C)C(=O)Nc1cc(Oc2cnc3nc(Nc4cc5n(n4)CCOCC5(C)C)n(C)c3c2C#N)ccn1` [Example I-67, 3-(4-((7-cyano-2-((4,4-dimethyl-4,5,7,8-tetrahydropyrazolo[1,5-d][1,4]oxazepinyl)amino)-1-methyl-1H-imidazo[4,5-b]pyridin-6-yl)oxy)pyridin-2-yl)-1,1-dimethylurea], the negative logarithm of the Kd (pKd) was over 8.00. The same measure, in the same setting: for `CC(=O)Nc1cc(Oc2cnc3nc(Nc4cc([C@H]5CCOC5)nc(C(F)(F)F)c4)n(C)c3c2C#N)ccn1` (single isomer, unassigned) [Example I-95-i] the value was over 8.00; for `COC(=O)Nc1cc(Oc2cnc3nc(Nc4cc5n(n4)CCN(C)C5=O)n(C)c3c2C#N)ccn1` [Example I-41, Methyl(4-((7-cyano-1-methyl-2-((5-methyl-4-oxo-4,5,6,7-tetrahydropyrazolo[1,5-a]pyrazin-2-yl)amino)-1H-imidazo[4,5-b]pyridin-6-yl)oxy)pyridin-2-yl)carbamate], 6.00 to 7.30. The same measure, in the same setting: the value for `CN1CCO[C@H](CC(=O)Nc2cc(Oc3cnc4nc(Nc5cc(C(F)(F)F)cn(C)c5=O)n(C)c4c3Cl)ccn2)C1` (single isomer, unassigned) [Example I-78-a] was over 8.00; that for `CN1CCO[C@@H](CC(=O)Nc2cc(Oc3cnc4nc(Nc5cc(C(F)(F)F)cn(C)c5=O)n(C)c4c3C#N)ccn2)C1` (single isomer, unassigned) [Example I-90-b] was over 8.00; that for `Cn1c(Nc2cc3n(n2)CCCC3(F)F)nc2ncc(Oc3ccnc(NC(=O)N4CC[C@H](O)C4)c3)c(C#N)c21` [Example I-29, (S)-N-(4-((7-cyano-2-((4,4-difluoro-4,5,6,7-tetrahydropyrazolo[1,5-a]pyridin-2-yl)amino)-1-methyl-1H-imidazo[4,5-b]pyridin-6-yl)oxy)pyridin-2-yl)-3-hydroxypyrrolidine-1-carboxamide] was 7.30 to 8.00. For `Cn1c(Nc2cc3n(n2)CCOC3(C)C)nc2ncc(Oc3ccnc(NC(=O)N4CCCC4)c3)c(C#N)c21` [Example I-45, N-(4-((7-cyano-2-((4,4-dimethyl-6,7-dihydro-4H-pyrazolo[5,1-c][1,4]oxazin-2-yl)amino)-1-methyl-1H-imidazo[4,5-b]pyridin-6-yl)oxy)pyridin-2-yl)pyrrolidine-1-carboxamide], the negative-log Kd (pKd) was over 8.00. With `Cn1c(Nc2cc(C(F)(F)F)cn(CCO)c2=O)nc2ncc(Oc3ccnc(NC(=O)C4CC4)c3)c(C#N)c21` [Example I-89, N-(4-((7-cyano-2-((1-(2-hydroxyethyl)-2-oxo-5-(trifluoromethyl)-1,2-dihydropyridin-3-yl)amino)-1-methyl-1H-imidazo[4,5-b]pyridin-6-yl)oxy)pyridin-2-yl)cyclopropanecarboxamide], the pKd was over 8.00. In the case of `CN(C)C(=O)Nc1cc(Oc2cnc3nc(Nc4cc5n(n4)CCCC5(F)F)n(C)c3c2C#N)ccn1` [Example I-21, 3-(4-((7-cyano-2-((4,4-difluoro-4,5,6,7-tetrahydropyrazolo[1,5-a]pyridin-2-yl)amino)-1-methyl-1H-imidazo[4,5-b]pyridin-6-yl)oxy)pyridin-2-yl)-1,1-dimethylurea], the pKd is over 8.00. For the compound `CC(=O)Nc1cc(Oc2cnc3nc(Nc4cc(OC[C@H]5CCCN5C)cc(C(F)(F)F)c4)n(C)c3c2Cl)ccn1` [Example I-97, (R)-N-(4-((7-chloro-1-methyl-2-((3-((1-methylpyrrolidin-2-yl)methoxy)-5-(trifluoromethyl)phenyl)amino)-1H-imidazo[4,5-b]pyridin-6-yl)oxy)pyridin-2-yl)acetamide], the pKd was over 8.00.

Turning to `Cn1cc(C(F)(F)F)cc(Nc2nc3ncc(Oc4ccnc(NC(=O)N5CCCC5)c4)c(C#N)c3n2C)c1=O` [Example I-11, N-(4-((7-cyano-1-methyl-2-((1-methyl-2-oxo-5-(trifluoromethyl)-1,2-dihydropyridin-3-yl)amino)-1H-imidazo[4,5-b]pyridin-6-yl)oxy)pyridin-2-yl)pyrrolidine-1-carboxamide], the pKd is over 8.00.

Consider `CN1CC(OC(=O)Nc2cc(Oc3cnc4nc(Nc5cc(C(F)(F)F)cn(C)c5=O)n(C)c4c3C#N)ccn2)C1` [Example I-39, 1-Methylazetidin-3-yl(4-((7-cyano-1-methyl-2-((1-methyl-2-oxo-5-(trifluoromethyl)-1,2-dihydropyridin-3-yl)amino)-1H-imidazo[4,5-b]pyridin-6-yl)oxy)pyridin-2-yl)carbamate], for which the pKd was 6.00 to 7.30. On the same count and under the same terms, the value for `CN(C)C(=O)Nc1cc(Oc2cnc3nc(Nc4cc5n(n4)CC(C)(C)OC5)n(C)c3c2C#N)ccn1` [Example I-73, 3-(4-((7-cyano-2-((6,6-dimethyl-6,7-dihydro-4H-pyrazolo[5,1-c][1,4]oxazin-2-yl)amino)-1-methyl-1H-imidazo[4,5-b]pyridin-6-yl)oxy)pyridin-2-yl)-1,1-dimethylurea] was 7.30 to 8.00. Still for that read-out and setting: for `CO[C@@H]1CCN(C(=O)Nc2cc(Oc3cnc4nc(Nc5cc6n(n5)CCCC6(F)F)n(C)c4c3C#N)ccn2)C1` [Example I-33] the value was over 8.00; for `CC(=O)Nc1cc(Oc2cnc3nc(Nc4cc([C@H]5CCOC5)nc(C(F)(F)F)c4)n(C)c3c2Cl)ccn1` (single isomer, unassigned) [Example I-91-a], over 8.00; for `CNC(=O)Nc1cc(Oc2cnc3nc(Nc4cc5n(n4)CCOCC5(C)C)n(C)c3c2C#N)ccn1` [Example I-69, 1-(4-((7-cyano-2-((4,4-dimethyl-4,5,7,8-tetrahydropyrazolo[1,5-d][1,4]oxazepin-2-yl)amino)-1-methyl-1H-imidazo[4,5-b]pyridin-6-yl)oxy)pyridin-2-yl)-3-methylurea], over 8.00.

Turning to `CN1CCN(C(=O)Nc2cc(Oc3cnc4nc(Nc5cc(C(F)(F)F)cn(C)c5=O)n(C)c4c3C#N)ccn2)CC1` [Example I-6, N-(4-((7-cyano-1-methyl-2-((1-methyl-2-oxo-5-(trifluoromethyl)-1,2-dihydropyridin-3-yl)amino)-1H-imidazo[4,5-b]pyridin-6-yl)oxy)pyridin-2-yl)-4-methylpiperazine-1-carboxamide], the pKd is over 8.00. On the same count and under the same terms, the value for `Cn1cc(C(F)(F)F)cc(Nc2nc3ncc(Oc4ccnc(NC(=O)CO)c4)c(Cl)c3n2C)c1=O` [Example I-86, N-(4-((7-chloro-1-methyl-2-((1-methyl-2-oxo-5-(trifluoromethyl)-1,2-dihydropyridin-3-yl)amino)-1H-imidazo[4,5-b]pyridin-6-yl)oxy)pyridin-2-yl)hydroxyacetamide] was over 8.00. On the same count and under the same terms, the value for `COCCNCC(=O)Nc1cc(Oc2cnc3nc(Nc4cc(C(F)(F)F)cn(C)c4=O)n(C)c3c2Cl)ccn1` [Example I-85, N-(4-((7-chloro-1-methyl-2-((1-methyl-2-oxo-5-(trifluoromethyl)-1,2-dihydropyridin-3-yl)amino)-1H-imidazo[4,5-b]pyridin-6-yl)oxy)pyridin-2-yl)-2-((2-methoxyethyl)amino)acetamide] was over 8.00.
